In patent publication US20090312396A1, “METHODS FOR CANCER TREATMENT USING TAK1 INHIBITORS” (AstraZeneca AB, priority 2006, published 2009):
Where two headings read alike, the source gives them in different places.

Experiments:
Raji = assay: AlamarBlue proliferation assay, GI50; format: cell-based, human; conditions: Homo sapiens, Raji, 72 hours, Table 4, read-out: GI50 Raji Burkitts Lymphoma
Method: (§1) The TAK1 inhibitors are known in the art (see for example, WO 2003010158, WO 2003010163 and WO2004063186 the disclosures of which are incorporated by reference herein). All cell lines were plated at 10,000 cells/well in flat-bottomed 96 well plates and dosed with test compounds in triplicate over a 10 point dosing range from 0 to 30 μmolesL^−1. All cell lines were incubated with test compounds for a total of 72 hours. Background levels were determined for a control (undosed) plate within 2 hours of dosing test compounds. Following the dosing period, the extent of proliferation was measured by adding 1/10 (vol/vol) AlamarBlue reagent to every well and incubating the plates for a further 4 hours. The reaction was stopped by the addition of SDS to a final concentration of 0.1%. Fluorescence was measured at 545 nm (excitation) and 600 nm (emission). Growth inhibition 50 (GI50) values were determined for each test compound across the panel.

TAK1 = target: T1, TAK1 (Homo sapiens, UniProt O43318); assay: TAK1 enzyme inhibition; format: biochemical; conditions: Table 4; read-out: TAK1 pIC50 (enzyme) (converted)
T1 sequence (O43318 1-606): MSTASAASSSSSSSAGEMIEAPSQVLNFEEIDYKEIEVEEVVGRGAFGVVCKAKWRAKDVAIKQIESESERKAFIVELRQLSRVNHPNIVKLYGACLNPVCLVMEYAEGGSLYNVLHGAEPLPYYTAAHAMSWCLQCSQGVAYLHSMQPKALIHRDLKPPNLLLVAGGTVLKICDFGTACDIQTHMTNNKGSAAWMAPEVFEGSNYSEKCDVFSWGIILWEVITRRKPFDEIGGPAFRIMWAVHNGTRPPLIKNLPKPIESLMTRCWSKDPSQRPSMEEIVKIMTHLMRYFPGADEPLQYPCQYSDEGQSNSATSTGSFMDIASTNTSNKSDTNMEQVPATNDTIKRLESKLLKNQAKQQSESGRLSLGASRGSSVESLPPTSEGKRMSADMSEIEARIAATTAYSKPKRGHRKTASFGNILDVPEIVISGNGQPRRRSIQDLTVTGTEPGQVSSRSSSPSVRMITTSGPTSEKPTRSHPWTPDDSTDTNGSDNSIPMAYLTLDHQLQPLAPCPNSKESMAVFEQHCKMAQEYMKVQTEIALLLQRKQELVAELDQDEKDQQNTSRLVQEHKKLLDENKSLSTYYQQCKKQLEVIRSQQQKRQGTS
T1 sequence (Q15750 1-504 partner): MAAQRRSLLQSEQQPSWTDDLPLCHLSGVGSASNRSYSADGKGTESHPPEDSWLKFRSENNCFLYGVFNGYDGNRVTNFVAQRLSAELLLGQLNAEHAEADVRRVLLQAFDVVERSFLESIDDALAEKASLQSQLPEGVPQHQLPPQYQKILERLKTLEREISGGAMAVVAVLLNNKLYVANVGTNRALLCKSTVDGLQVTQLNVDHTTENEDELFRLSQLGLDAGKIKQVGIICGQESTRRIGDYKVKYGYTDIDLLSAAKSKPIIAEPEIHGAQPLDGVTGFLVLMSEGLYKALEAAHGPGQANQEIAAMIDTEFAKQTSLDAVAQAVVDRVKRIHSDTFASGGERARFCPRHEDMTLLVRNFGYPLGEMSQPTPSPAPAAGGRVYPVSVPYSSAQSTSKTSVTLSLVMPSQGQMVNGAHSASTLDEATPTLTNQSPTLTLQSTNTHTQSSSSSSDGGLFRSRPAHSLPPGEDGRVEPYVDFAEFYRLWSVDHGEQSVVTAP

KG1a = assay: AlamarBlue proliferation assay, GI50; format: cell-based; conditions: Homo sapiens, KG-1a, 72 hours, Table 4, read-out: GI50 KG1a AML
Method: as §1

DOHH2 = assay: AlamarBlue proliferation assay, GI50; format: cell-based; conditions: Homo sapiens, DOHH-2, 72 hours
Method: as §1

Karpas231 = assay: AlamarBlue proliferation assay, GI50; format: cell-based; conditions: Homo sapiens, 72 hours
Method: as §1

ARH77 = assay: AlamarBlue proliferation assay, GI50; format: cell-based; conditions: Homo sapiens, ARH-77, 72 hours
Method: as §1

MEC1 = assay: AlamarBlue proliferation assay, GI50; format: cell-based; conditions: Homo sapiens, 72 hours
Method: as §1

OCI-LY19 = assay: AlamarBlue proliferation assay, GI50; format: cell-based; conditions: Homo sapiens, 72 hours
Method: as §1

WSU-NHL = assay: AlamarBlue proliferation assay, GI50; format: cell-based; conditions: Homo sapiens, 72 hours, Table 4, read-out: GI50 WSU-NHL B-NHL
Method: as §1

Jurkat = assay: AlamarBlue proliferation assay, GI50; format: cell-based; conditions: Homo sapiens, 72 hours, Table 4, read-out: GI50 Jurkat T-ALL
Method: as §1

HEL92.1.7 = assay: AlamarBlue proliferation assay, GI50; format: cell-based; conditions: Homo sapiens, HEL 92.1.7, 72 hours, Table 4, read-out: GI50 HEL92.1.7 Erythroleukemia
Method: as §1

SUDHL4 = assay: AlamarBlue proliferation assay, GI50; format: cell-based; conditions: Homo sapiens, SU-DHL-4, 72 hours
Method: as §1

IM-9 = assay: AlamarBlue proliferation assay, GI50; format: cell-based; conditions: Homo sapiens, 72 hours, Table 8, read-out: GI50 IM-9 B lymphoblastoid
Method: as §1
(§2) The experiments to generate the results for both Tables 5 and 6 were performed as described above.

RPMI-8226 = assay: AlamarBlue proliferation assay, GI50; format: cell-based; conditions: Homo sapiens, 72 hours, Table 8, read-out: GI50 RPMI-8226 M.M
Method: as §1, §2

MOLP-8 = assay: AlamarBlue proliferation assay, GI50; format: cell-based; conditions: Homo sapiens, 72 hours, Table 8, read-out: GI50 MOLP-8 Multiple myeloma
Method: as §1, §2

L-363 = assay: AlamarBlue proliferation assay, GI50; format: cell-based; conditions: Homo sapiens, 72 hours, Table 8, read-out: GI50 L-363 plasma cell leukemia
Method: as §1, §2

WSU DLCL2 = assay: AlamarBlue proliferation assay, GI50; format: cell-based; conditions: Homo sapiens, WSUDLCL2, 72 hours, Table 7, read-out: GI50 WSU-DLCL B cell lymphoma
Method: as §1, §2

JVM-3 = assay: AlamarBlue proliferation assay, GI50; format: cell-based; conditions: Homo sapiens, 72 hours, Table 7, read-out: GI50 JVM-3 B-PLL
Method: as §1, §2

AM0-1 = assay: AlamarBlue proliferation assay, GI50; format: cell-based; conditions: Homo sapiens, 72 hours, Table 8, read-out: GI50 AM0-1 plasmacytoma
Method: as §1, §2

JEKO-1 = assay: AlamarBlue proliferation assay, GI50; format: cell-based; conditions: Homo sapiens, 72 hours, Table 7, read-out: GI50 JEKO-1 MCL
Method: as §1, §2

JJN-3 = assay: AlamarBlue proliferation assay, GI50; format: cell-based; conditions: Homo sapiens, 72 hours, Table 8, read-out: GI50 JJN-3 plasma cell leukemia
Method: as §1, §2

[1] = Table 4, read-out: GI50 DOHH2 FL
[2] = Table 4, read-out: GI50 Karpas231 B-ALL
[3] = Table 4, read-out: GI50 ARH77 Plasma cell leukemia
[4] = Table 4, read-out: GI50 MEC1 B-CLL
[5] = Table 4, read-out: GI50 OCI-LY19 DLBCL
[6] = Table 4, read-out: GI50 SUDHL4 DLBCL

Structure (SMILES) | GI50 (Raji) [nM] | IC50 (TAK1) [nM] | GI50 (KG1a) [nM] | GI50 (DOHH2; [1]) [nM] | GI50 (Karpas231; [2]) [nM] | GI50 (ARH77; [3]) [nM] | GI50 (MEC1; [4]) [nM] | GI50 (OCI-LY19; [5]) [nM] | GI50 (WSU-NHL) [nM] | GI50 (Jurkat) [nM] | GI50 (HEL92.1.7) [nM] | GI50 (SUDHL4; [6]) [nM] | also measured
NC(=O)Nc1sc(-c2ccc(CN3CCOCC3)cc2)cc1C(N)=O [Compound 1, 2-[(aminocarbonyl)amino]-5-[4-(morpholin-4-ylmethyl)phenyl]thiophene-3-carboxamide] | 15200 | 126 | 450 | 127 | 300 | 1170 | 1340 | 124 | 370 | 15900 | 730 | 6390 | 
NC(=O)Nc1cc(-c2ccc(CN3CCOCC3)cc2)sc1C(N)=O [Compound 3, 3-[(aminocarbonyl)amino]-5-[4-(morpholin-4-ylmethyl)phenyl]thiophene-2-carboxamide] | > 30000 | 100 | 430 | 175 | 160 | 480 | 630 | 85 | 420 | > 30000 | 500 | 2720 | 
COc1cc(O)c2c(c1)/C=C/C[C@H](O)[C@H](O)C(=O)/C=C\C[C@H](C)OC2=O [LL-Z-1640-2, (3S,5Z,8S,9S,11E)-8,9,16-trihydroxy-14-methoxy-3-methyl-3,4,9,10-tetrahydro-1H-2-benzoxacyclotetradecine-1,7(8H)-dione, reference compound] |  |  |  |  |  |  |  |  |  |  |  |  | GI50 (IM-9): 20 nM; GI50 (RPMI-8226): 1410 nM; GI50 (MOLP-8): 10400 nM; GI50 (L-363): ≥ 32400 nM; GI50 (WSU DLCL2): 20 nM; GI50 (JVM-3): 710 nM; GI50 (AM0-1): 570 nM; GI50 (JEKO-1): 70 nM; GI50 (JJN-3): ≥ 32400 nM; GI50 (DOHH2; Table 7, read-out: GI50 DOHH2 FL): 390 nM; GI50 (Karpas231; Table 7, read-out: GI50 KARPAS231 B-ALL): 950 nM; GI50 (ARH77; Table 8, read-out: GI50 ARH-77 plasma cell leukemia): 1240 nM; GI50 (MEC1; Table 7, read-out: GI50 MEC1 B-CLL): 730 nM; GI50 (OCI-LY19; Table 7, read-out: GI50 OCI-LY19 DLBCL): 230 nM; GI50 (SUDHL4; Table 7, read-out: GI50 SUDHL4 DLBCL): 1640 nM
